In US9745613B2, “Compounds, substrates and methods related to histone deacetylases” (The Broad Institute, Inc., priority 2014, dated 2017):

What was measured:
[1] = system: p21 (CDKN1A) overexpression; assay: Connectivity map query analysis of L1000 signatures across cell lines; assay type: cell-based, human; details: across multiple cell lines, relative to 430 overexpressed genes
Description: To assess whether our findings extend beyond the context of a single cell type and to incorporate into our analysis orthogonal biological perturbations, we expanded our gene expression studies using L1000 into several cell lines representative of distinct tissue types: PC3 (prostate), HEPG2 (liver), HCC515 (lung), HAlE (kidney), A375 (skin), A549 (lung), HT29 (colon). […] These candidate substrates of HDAC8 may provide a more targeted approach toward specific cancers (or other diseases) driven by the dysregulation of proteins and/or genes within this HDAC8 network. […] Efforts toward defining the functional consequences of the change in acetylation of these proteins by HDAC8 are ongoing.
The raw expression data are log 2-scaled, quantile normalized, and z-scored, such that a differential expression value is achieved for each gene in each well. In the standard L1000 protocol, each well corresponds to a different perturbagen and these differential expression values are collapsed across replicate wells to yield a differential expression signature for each perturbagen. […] To assess this, we did a meta-analysis of the CMap query results (i.e., lists of perturbations ordered by similarity to an input gene expression signature). […] We performed the same analysis with BRD3811 as well. […]

MCF7 cells [2] = assay: L1000 gene expression profiling; assay type: cell-based, human; details: for number of dose-responsive genes with altered expression: approximately 1,000 landmark genes
Procedure: Cells were incubated for 24 hours at 37° C. in a humidified incubator containing 5% CO2 before treatment.
These 1,000× stock solutions were first diluted (100-fold) in culture medium, and then the diluted compounds were transferred to the cell culture plates using CyBi-well vario 384-well tips (another 10-fold dilution). Ultimately, all compounds were diluted 1,000-fold to their desired serial concentrations with a final DMSO concentration of 0.1%. Treated cells were incubated for 24 hours prior to lysis. […] Cell lysate plates were sealed using a plate sealer, kept at room temperature for 30 minutes, and then frozen at −80° C. until L1000 gene expression profiling was performed.
In this study, we utilize L1000, a high-throughput, bead-based gene expression assay in which mRNA is extracted from cultured human cells treated with various chemical or genomic perturbagens (small molecules, gene knockdowns, or gene over-expression constructs) as previously described.^38 This mRNA is reverse-transcribed into first-strand cDNA. Gene specific probes containing barcodes and universal primer sites are annealed to the first strand cDNA. The probes are ligated to form a template for PCR. The template is PCR amplified with biotinylated-universal primers. The end products are biotinylated, fixed length, barcoded amplicons. The amplicons can then be mixed with Luminex beads that contain complementary barcodes to those encoded in each of the 1000 amplified landmark genes. These 1000 landmark genes were chosen as a reduced representation of the transcriptome and account for the majority of expression variation across many cellular contexts (Subramanian, et al., manuscript in preparation). These beads are then stained with fluorescent streptavidin-phycoerythrin (SAPE) and detected in 384-well plate format on a Luminex FlexMap flow cytometry-based scanner. The resulting readout is a measure of mean fluorescent intensity (MFI) for each landmark gene.

HDAC8 = biological target: T1, HDAC8 (Homo sapiens, UniProt Q9BY41); assay: Caliper assay, biochemical HDAC IC50; details: relative to PCI-34051
T1 construct: purchased BPS Bioscience
T1 sequence (Q9BY41 1-377): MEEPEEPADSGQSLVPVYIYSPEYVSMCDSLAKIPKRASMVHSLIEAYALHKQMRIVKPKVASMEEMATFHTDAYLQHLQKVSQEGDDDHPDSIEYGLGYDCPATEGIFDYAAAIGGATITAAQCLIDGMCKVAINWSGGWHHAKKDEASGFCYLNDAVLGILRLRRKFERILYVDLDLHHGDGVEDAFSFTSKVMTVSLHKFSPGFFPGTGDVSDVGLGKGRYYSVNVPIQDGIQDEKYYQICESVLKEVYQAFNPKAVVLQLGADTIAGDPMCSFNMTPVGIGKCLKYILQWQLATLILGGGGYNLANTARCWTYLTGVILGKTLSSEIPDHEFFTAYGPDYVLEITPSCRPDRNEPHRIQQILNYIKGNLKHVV
Procedure: The biochemical determination of HDAC ICsos for compounds was performed as described previously (Zhang, Y.-L. et al., Fluorescent substrates for determining lysine modifying enzyme activity, 2013, Patent Application WO 2013067391). All HDACs were purchased from BPS Bioscience. The substrates Broad Substrate A and Broad Substrate B were synthesized in house, but can be purchased from PerkinElmer (Product number CLS960006 and CLS960007, respectively). All other reagents were purchased from Sigma. Caliper EZ reader II system was used to collect all data. Compounds were tested in duplicate in a 12-point dose curve with 3-fold serial dilution starting from 33.33 μM. Purified HDACs were incubated with 2 μM carboxyfluorescein (FAM)-labeled acetylated or trifluoroacetylated peptide substrate (Broad Substrate A and B, respectively) and test compound for 60 min at room temperature, in an HDAC assay buffer that contained 50 mM HEPES (pH 7.4), 100 mM KCl, 0.01% BSA and 0.001% Tween-20. […] Substrate and product were separated electrophoretically and fluorescence intensity in the substrate and product peaks was determined and analyzed by Labchip EZ Reader. […] Inhibition of HDAC10 and 11 was not measured due to either low purity of the available recombinant HDAC enzyme preparations and/or lack of activity of the enzymes and low substrate conversion.

p21 = assay: Western blotting of p21 protein; assay type: cell-based; details: MCF7 cells, 10 μM, 48 h
Procedure: MCF7 cells were treated with compounds for 48 h, at which time, lysates were collected using RIPA buffer with added protease (Roche) and phosphatase (Roche) inhibitors. Electrophoresis was performed using NuPage 4-12% Bis-Tris gels (Invitrogen). Proteins were transferred to a nitrocellulose membrane and probed using antibodies for p21 (Cell Signaling) and GAPDH (Cell Signalling). Chemiluminescence was induced by subsequent incubation with HRP-linked secondary antibodies (GE Healthcare UK Ltd.) and treatment of the membrane with the appropriate ECL solutions (Thermo Scientific). Visualization was accomplished using a ChemiDoc MP System (Bio-Rad), and the raw data files were converted to jpegs using ImageJ (NIH).

MCF7 cells [3] = assay: SILAC-based global acetylation profiling; assay type: cell-based; details: compared to DMSO or BRD3811
Description: Using these chemical tools, we compared the changes in global acetylation in a representative cell line known to express HDAC8 (i.e. MCF7) after treatment with each compound using Stable Isotope Labeling of Amino Acids in Cell Culture (SILAC)-based quantitative mass spectrometry (MS). (Ververis, K., Karagiannis, T. C. (2012) An atlas of histone deacetylase expression in breast cancer: fluorescence methodology for comparative semi-quantitative analysis. Am. J. Transl. Res. 4, 24-43). […] Global acetylation profiling was completed by digesting cellular proteins with trypsin and enriching the acetylated peptides by immunoprecipitation using an antibody specific for acetylated lysine residues.
MCF7 cells were grown and expanded from the same frozen vial stock, followed by differentially labeling with non-radioactive stable isotopic amino acids by growing in light, medium, and heavy SILAC media (see below for recipe), respectively (Ong, S. E., et al. Mol. Cell Proteomics 5, 376-386 (2002)). […]
EDTA, 2 μg/ml aprotinin (Sigma-Aldrich), 10 μg/ml leupeptin (Roche Applied Science), 1 mM phenylmethylsulfonyl fluoride (PMSF), and 5 mM sodium butyrate (Sigma-Aldrich). […] Protein concentrations were measured using a bicinchoninic acid (BCA) protein assay. […]

MCF-7 cells = assay: Global histone modification profiling; assay type: cell-based; details: 10 μM for 24 h
Procedure: Each row represents a unique combination of histone modifications (as denoted by “Histone Mark”) and each column represents a treatment of MCF-7 cells with the compound indicated at 10 μM for 24 h. Each compound treatment was performed in biological duplicate (R1 and R2). Each cell is colored by the log2-fold change over the average of the DMSO replicates as denoted in the scale bar. Global histone profiles were obtained in a manner essentially equivalent to a previous report. (Kim, J. H., Yu, S., Chen, J. D., Kong, A. N. (2013) The nuclear cofactor RAC3/AIB1/SRC-3 enhances Nrf2 signaling by interacting with transactivation domains. Oncogene 32, 514-527).

SMILES	average percentile rank of similarity to p21 (CDKN1A) overexpression signature [1] [percentile]	fold_change_at_10_uM CDKN1A (202284_s_at) (MCF7 cells [2]; MCF7, 10 uM, 24 h)	fold_change_at_10_uM CSNK1A1 (206562_s_at) (MCF7 cells [2]; MCF7, 10 uM, 24 h)	fold_change_at_10_uM DUSP3 (201536_at) (MCF7 cells [2]; MCF7, 10 uM, 24 h)	fold_change_at_10_uM ERBB2 (216836_s_at) (MCF7 cells [2]; MCF7, 10 uM, 24 h)	fold_change_at_10_uM GHR (205498_at) (MCF7 cells [2]; MCF7, 10 uM, 24 h)	fold_change_at_10_uM HMGA2 (208025_s_at) (MCF7 cells [2]; MCF7, 10 uM, 24 h)	fold_change_at_10_uM HMOX1 (203665_at) (MCF7 cells [2]; MCF7, 10 uM, 24 h)	fold_change_at_10_uM PRSS23 (202458_at) (MCF7 cells [2]; MCF7, 10 uM, 24 h)	fold_change_at_10_uM SLC25A46 (212833_at) (MCF7 cells [2]; MCF7, 10 uM, 24 h)	fold_change_at_10_uM TXNRD1 (201266_at) (MCF7 cells [2]; MCF7, 10 uM, 24 h)	fold_change_at_10_uM VAT1 (208626_s_at) (MCF7 cells [2]; MCF7, 10 uM, 24 h)	level of the p21 transcript (MCF7 cells [2]; dose range 0.04 μM-10 μM, 24 h)	number of dose-responsive genes with altered expression (MCF7 cells [2]; dose range 0.04 M-10 M) [genes]	reduction in potency for inhibition of HDAC8 (HDAC8)	p21 protein levels (western blot) (p21)	number of dose-responsive genes with altered expression (MCF7 cells [2]; dose range 0.04 μM-10 μM) [genes]	changes in histone acetylation status (MCF7 cells [3])	histone acetylation (MCF-7 cells)
COc1ccc(Cn2ccc3cc(C)c(C(=O)NO)cc32)cc1 [BRD3811]	66	1.956	1.623	1.586	1.614	0.7287	0.6073	2.067	0.6507	0.5635	1.298	1.389	increased the level of p21 transcript only at the highest dose tested	11	1,000 fold	–	–	–	–
COc1ccc(Cn2ccc3ccc(C(=O)NO)cc32)cc1 [PCI-34051, reference compound]	96	–	–	–	–	–	–	–	–	–	–	–	dose-dependent increase	–	–	increased p21	70	did not observe any significant changes	not altered
